Experimental data taken from patent US9181243B2, “Solvate form M of trametinib dimethyl sulfoxide and methods of making and using thereof” (HANGZHOU PUSHAI PHARMACEUTICAL TECHNOLOGY CO., LTD., priority 2014, dated 2015).
Read-outs that look alike come from different tables or passages of the source. Each block holds one compound with its values, some of them ahead of it.

Tests used:
[1] = system: advanced melanoma with BRAF V600E/K mutations; conditions: versus traditional chemotherapy drugs; cited from earlier work
[2] = Storage stability of crystalline form followed by XRPD; conditions: 44% RH, room temperature, 9 months
[3] = volume distribution
Method: Typical particle size distribution (PSD) is measured using a laser diffraction particle size analyzer, namely Microtrac FLEX 53500. The most common approach for defining the distribution is to report the D10, D50, and D90 values based on a volume distribution. The D50, the median, has been defined above as the diameter where half of the population lies below this value. Similarly, 90 percent of the distribution lies below the D90, and 10 percent of the population lies below the D10.

[4] = Isothermal sorption (hygroscopicity); conditions: between 20-80% RH (relative humidity)
Method: Isothermal sorption was performed by TA Instruments Q5000 TGA. The control software is Thermal Advantage and the analysis software is Universal Analysis. Usually 1 to 10 mg of the specimen was placed in the platinum pan. The weight changes of the sample from 20% to 80% to 20% relative humidity were recorded by the TA software and the isothermal sorption plot was obtained by the analysis software.

Structure (SMILES): CC(=O)Nc1cccc(-n2c(=O)n(C3CC3)c(=O)c3c(Nc4ccc(I)cc4F)n(C)c(=O)c(C)c32)c1 [trametinib, N-{3-[3-cyclopropyl-5-(2-fluoro-4-iodo-phenylamino)-3,4,6,7-tetrahydro-6,8-dimethyl-2,4,7-trioxo-pyrido[4,3-d]pyrimidin-1(2H)-yl]phenyl}acetamide]
- therapeutic effect [1]: significantly better than traditional chemotherapy drugs

- crystalline form change on storage (XRPD pattern) ([2]; listed as trametinib dimethyl sulfoxide solvate obtained by the conventional methods): its patterns changed
- crystalline form change on storage (XRPD pattern) ([2]; listed as trametinib dimethyl sulfoxide solvates obtained by conventional methods): changed its XRD pattern
- D10 [3]: 3 μm
- D50 [3]: 8 μm
- D90 [3]: 36 μm
Structure (SMILES): CC(=O)Nc1cccc(-n2c(=O)n(C3CC3)c(=O)c3c(Nc4ccc(I)cc4F)n(C)c(=O)c(C)c32)c1.C[S+](C)[O-] [Reference Example 1, Trametinib dimethyl sulfoxide solvate, reference compound]

- crystalline form change on storage (XRPD pattern) [2]: no signs of form change
- weight change in isothermal sorption [4]: about 1.07%
- D10 ([3]; listed as Example 8): 18 μm
- D50 ([3]; listed as Example 8): 40 μm
- D90 ([3]; listed as Example 8): 85 μm
- D10 ([3]; listed as Example 9): 9 μm
- D50 ([3]; listed as Example 9): 24 μm
- D90 ([3]; listed as Example 9): 72 μm
Structure (SMILES): CC(=O)Nc1cccc(-n2c(=O)n(C3CC3)c(=O)c3c(Nc4ccc(I)cc4F)n(C)c(=O)c(C)c32)c1 [Form M]
